Assay results taken from US4562205A, “Derivatives of 2-aminoacetic acid” (Continental Pharma Inc., priority 1983, dated 1985).
Where two headings read alike, the source gives them in different places.

Assays:
in vivo [1] = conditions: mouse, in vivo, po
Text: (§1) In further pharmacological tests the acute toxicity and the effect on behaviour have been examined. The effect on behaviour has been studied using a method derived from the one of S. Irvin [Gordon Res. Conf. on Medicinal Chemistry, p. 1933 (1959) as cited by R. A. Turner (Screening Methods in Pharmacology, Acad. Press, 1965, Chapter III, pages 22-34)].
(§2) No further testing has been made when a dose has been reached at which no abnormal behaviour or toxicity has been observed. […] The deaths were registered for 14 days following the treatment.

mice [2] = assay: in vivo; conditions: oral, mice
Text: as §1, §2

[3] = test system: convulsions induced by bicuculline in mice; assay: Anti-convulsant activity against bicuculline-induced convulsions (protection against tonic extension); format: in vivo, mice (CDl-Charles River); conditions: for potency compared with reference (in words): ED50 comparison, bicuculline test; for ED50: Mus musculus, 3 h, read-out: ED50 (dose providing protection against tonic extension of 50% of the animals); for % of protection (against tonic extension): 10 mg/kg, 20 mice
Protocol: The compounds tested, 2-pentanoylaminoacetic acid (compound I), sodium 2-pentanoylaminoacetate (compound II) or sodium valproate (a generally accepted reference substance), have been administered orally to 20 mice (CDl-Charles River) at a dose of 10 mg/kg as a suspension in a 1% tragacanth gum mucilage. Administration has been done by means of an intragastric tube.
Three hours later, bicuculline has been administered at a dose of 0,7 mg/kg by intravenous injection in the lateral vein of the tail.
The anti-convulsant activity of the compounds has been further evaluated, using the technique described hereinabove, by examining the effect at different doses. From the experimental data, the ED50 value has been calculated, i.e. the effective dose (mg/kg) providing protection against tonic extension of 50% of the animals.

in vivo [4] = conditions: mouse, in vivo, po; remark: listed apart in the source
Text: as §1, §2
(§3) The LD50 value, i.e. the dose expressed in mg/kg which is lethal for 50% of the animals, has been calculated according to the Litchfield and Wilcoxon method [J. Pharmacol. Exp. Ther., 96, 99 (1949)].

mice [5] = assay: in vivo; conditions: mice; for deaths: 3000 mg/kg per os
Text: as §1, §2, §3

[6] = oral, bicuculline 0,7 mg/kg i.v. three hours later
[7] = oral, different doses, bicuculline 0,7 mg/kg i.v. three hours later, mice

Structure (SMILES) | MTD at 336 h (in vivo [1]) [mg/kg] | toxicity and effect on behaviour (in words) (mice [2]) | TI-B (MTD/ED50) (mice [2]; therapeutical index) | potency compared with reference (in words) ([3]; mice) | ED50 ([3]; po) [mg/kg] | % of protection (against tonic extension) [3, 6] [%] | LD50 at 336 h (in vivo [4]) [mg/kg] | deaths (mice [5]) | TI-A (LD50/ED50) (mice [5]; therapeutical index, oral) | selectivity ratio (in vivo [1]; TI-B (MTD/ED50), therapeutical index, mice) | ED50 [3, 7] [mg/kg] | anti-convulsant activity (in words) ([3]; convulsions induced by bicuculline in mice)
CCCCC(=O)NCC(=O)[O-].[Na+] | ≥ 3000 | very weak | > 326 | more potent | 9.2 | 55 | > 3000 | no deaths | > 326 |  |  | 
CCCCC(=O)NCC(=O)O [compound I, 2-pentanoylaminoacetic acid] | ≥ 3000 | very weak |  | more potent |  | 55 | > 3000 | no deaths |  | > 280 | 10.7 | potent anti-convulsant activity
CCCC(CCC)C(=O)[O-].[Na+] [sodium valproate, reference compound] |  |  |  |  |  | 40 |  |  |  |  | 29 | 
